Assay results: patent publication US20260250247A1, “NOVEL INDOLINE DERIVATIVE AND USE THEREOF” (CK REGEON INC., priority 2023, published 2026)

Experiments:
3T3-L1 pre-adipocytes = assay: Inhibition of adipocyte differentiation and lipid accumulation, Oil Red O; format: cell-based; conditions: Mus musculus, 192 h; 3T3-L1, compound 1 μM, MDI-induced differentiation for 8 days, Oil Red O eluted, absorbance 544 nm; read-out: lipid accumulation rate
Protocol: 3T3-L1 cells were seeded in a 6-well plate at a density of […] cells per well. The cells were grown to 100% confluency in Dulbecco's modified Eagle's medium (DMEM) supplemented with 10% bovine calf serum (BCS; GIBCO). Two days after reaching 100% confluency, differentiation was induced with or without treatment with the indoline compound at a concentration of 1 μM in DMEM containing 10% fetal bovine serum (FBS; GIBCO) and MDI (520 μM methylisobutylxanthine (IBMX; Sigma-Aldrich), 1 μM dexamethasone (Sigma-Aldrich), and 5 μM insulin (GIBCO)). On day 3, the medium was replaced with DMEM containing 10% FBS and 5 μM insulin with or without the indoline compound, and then with a fresh identical medium every 2 days. After differentiation for 8 days, the culture medium was removed, and the cells were washed with PBS and then fixed with 10% formaldehyde for 1 hour. After removing the 10% formaldehyde, the cells were washed thoroughly with distilled water. After that, 60% isopropanol was added and immediately then removed. After washing with distilled water, lipid droplets were stained with an Oil Red O dye solution for 20 minutes and then washed with distilled water. The cells were counterstained with Mayer's hematoxylin. Oil Red O images were visualized using a bright-field microscope (Nikon TE-2000U). To quantify the accumulated lipids, Oil Red O was eluted by adding isopropanol, and absorbance was measured spectrophotometrically at 544 nm using a multi-plate reader.
As A3051 (KY19382) and A3334, self-developed and synthesized materials were used. As BIO, or GSK 3 Inhibitor IX, also known as 6-bromoindirubin-3′-oxime, HY-10580 was purchased commercially.
In FIG. 2, the undifferentiated group (Un Diff) refers to undifferentiated adipocytes, or preadipocytes that had not been induced to differentiate, and the differentiated group (Diff) refers to fully differentiated adipocytes.

[1] = tested on: lipid droplets / PPARγ in liver tissue; assay: Liver Oil Red O staining and PPARγ immunohistochemistry in MASH mice; format: in vivo, C57BL/6N mice; conditions: 25 mg/kg/day orally for 4 weeks
Protocol: (§1) Five-week-old wild-type male C57BL/6N mice were purchased from Orient Bio Co., Ltd. They were allowed to acclimate to the laboratory environment for one week. Mice weighing 18-20 g on average were used in the experiment. To ensure ethical and scientific validity and efficient management of animal experiments, the experiment was conducted with the approval of the Institutional Review Board (IACUC-A-202205-1472-01) of Severance Hospital, Yonsei University College of Medicine.
(§2) The mice were divided into a normal group (NCD) and a high-fat diet group (HFD). The normal group (NCD) was fed a normal chow diet (NCD, Teklad Global 18% protein rodent diet), and the high-fat diet group (HFD) was fed a high-fat diet (HFD, D12492) in which fat accounted for 60% of the total calories, for 8 weeks.
(§3) Mice induced with metabolic dysfunction-associated steatohepatitis (MASH) (hereinafter, referred to as MASH or MASH group) were prepared by administering CCl4 intraperitoneally twice a week for 4 weeks after feeding the high-fat diet (HFD) for 8 weeks. The […] was diluted with corn oil at a ratio of 1:19 and injected at a dosage of 2 mL/kg. The normal group (NOD) was administered the same volume of physiological saline.
(§4) The animals were divided into 7 groups, each with 10 animals.
It was investigated whether the accumulation of triglycerides in the liver is suppressed effectively. For this purpose, liver tissue was extracted from each group, and it was prepared into 10-μm thick cryosections, which were then stained with Oil Red O. Details are as follows. After preparing the 7 groups, the animals were euthanized using carbon dioxide and the liver tissues were extracted. A certain area of the extracted liver tissue was cryosectioned to 10 μm thickness, fixed in 4% neutral paraformaldehyde for 20 minutes at room temperature, and washed with 70% isopropanol (Duksan Pure Chemicals). After staining with the Oil Red O (Sigma-Aldrich) reagent for 20 minutes, the sections were washed thoroughly three times with distilled water. The tissue was counterstained with Mayer's hematoxylin. Then, Oil Red O staining images were visualized using a bright-field microscope (Nikon TE-2000U).
After preparing the 7 groups, the animals were sacrificed using carbon dioxide and the liver tissues were extracted. The extracted tissues were fixed in 4% neutral paraformaldehyde and embedded in paraffin to prepare sections. The paraffin sections were cut to 4-μm thickness, deparaffinized, and then rehydrated. For antigen exposure, slides were autoclaved in a 10 mM sodium citrate buffer (pH 6.0). To block endogenous peroxidase activity prior to peroxidase IHC analysis, the tissues were incubated with 0.3% H2O2 for 10 minutes. The incubated sections were treated with phosphate-buffered saline (PBS) containing 10% NGS and 0.3% Tween-20 for 1 hour at room temperature, treated with primary antibodies of anti-PPARγ (1:50; Abcam), and incubated overnight at 4° C.
The sections treated with the primary antibodies were washed with PBS and incubated with biotinylated anti-mouse (1:400; Dako) or anti-rabbit (1:400; Dako) secondary antibodies for 1 hour at room temperature. The sections incubated with the secondary antibodies were stained with 3,3′-diaminobenzidine (DAB; Dako) for 3-7 minutes and then counterstained with Mayer's haematoxylin. All incubations were performed in a humid chamber. After the staining, images were taken and analyzed using a bright-field microscope (Nikon TE-2000U).

[2] = tested on: mice induced with metabolic dysfunction-associated steatohepatitis (MASH); assay: Liver fibrosis score from collagen staining (Picrosirius red) in MASH mice; format: in vivo, C57BL/6N mice; conditions: 25 mg/kg/day orally for 4 weeks; mean±SD; normal group 0, MASH group 3.11
Protocol: as §1, §2, §3, §4
After preparing the 7 groups, the animals were euthanized using carbon dioxide and the liver tissues were extracted. The extracted tissues were fixed in 4% neutral paraformaldehyde and embedded in paraffin to prepare sections. The paraffin sections were cut to 4-μm thickness, deparaffinized, and then rehydrated. The hydrated sections were stained with a Weigert's iron hematoxylin solution for 8 minutes and then with Picrosirius red for 1 hour. Collagen fibers were stained red and nuclei were stained blue. The sections were photographed using a bright-field microscope (Nikon TE-2000U).
The main mechanism of nonalcoholic fatty liver disease is the induction of hepatic stellate cell activation, which induces collagen production and leads to liver fibrosis due to collagen accumulation. From the result of collagen staining (Picrosirius red) for observing the total amount of collagen deposition in Test Example 3-6, the liver fibrosis score was analyzed. Stages 2 to 3 were diagnosed as nonalcoholic fatty liver disease (MASH) (M. Brunt et al., 2005).
All quantitative data are presented as mean±standard deviation (SD). In each experiment, all measurements were made at least three times, and data were analyzed using the two-tailed, unpaired Student's t test. P values of <0.05 were considered statistically significant.

## N#Cc1ccc2c(c1)/C(=C1/Nc3ccccc3C1=O)C(=O)N2 [5-cyanoindirubin]
3T3-L1 pre-adipocytes
  activity at 1 µM: 79%
[1]
  lipid droplet formation and lipid infiltration in liver, Oil Red O staining: no significant difference was observed
[2]
  Degree of liver fibrosis (fibrosis score): 2.89
